From patent publication US4691046A, “Butanedioic acid mono [(2-dimethylamino] ethyl ester)succinate” (Institut Organicheskoi Khimii Ordena Lenina I Ordena …, priority 1986, dated 1987)

Key:
[1] = Solubility; format: physicochemical
[2] = Blood glucose and organ glycogen upon predetermined (2.5 h) cold treatment (adaptation experiment); format: in vivo, mice; details: no adaptation, preparation 1 hour prior to the testing effect, 2.5 h at -14° C.
[3] = Toxicity upon intraperitoneal administration; details: mouse, in vivo, ip

CN(C)CCOC(=O)CCC(=O)O [Compound of this invention, butanedioic acid mono[(2-dimethylamino)ethyl ester]succinate]
solubility in acetone ([1]; acetone): sparingly soluble | solubility in ethanol ([1]; ethanol): sparingly soluble | solubility in water ([1]; water): well soluble | Glycogen, heart ([2]; control 1.7 ± 0.2): 2.2 ± 3.4 mg/g | Glycogen, liver ([2]; control 6.7 ± 0.4): 7.1 ± 2.6 mg/g | Blood glucose ([2]; control 37 ± 6): 59 ± 2.6 mg. % | LD50 [3]: 3040 mg/kg
